Laboratory results published in US20230270720A1, “MAVOGLURANT, A MGLUR5 ANTAGONIST, FOR USE IN THE TREATMENT IN THE REDUCTION OF OPIOID USE” (Novartis AG, priority 2020, published 2023).

Key:
Sprague-Dawley rats [1] = test: Cue-induced reinstatement of remifentanil seeking in the rat; assay type: in vivo
morphine tolerant mice = test: Opiate tolerance test (hot plate) in the mouse; assay type: in vivo; conditions: for increase of foot-licking latency as compared with animals receiving morphine from Day 1 to Day 6: morphine 32 mg/kg i.p. twice daily Day 1-6; for effect on foot-licking latency: morphine tolerant mice
Sprague-Dawley rats [2] = test: Remifentanil intravenous self-administration model in Sprague-Dawley rats; assay type: in vivo, rat; conditions: for rate of lever press (speed of lever pressing): vehicle 0.077±0.031, P>0.05
[3] = test system: rat model of drug dependence; conditions: cited from earlier work
adult CD1 mice = conditions: 20 mg/kg, i.p., cited from earlier work

COC(=O)N1CC[C@@H]2[C@H]1CCC[C@@]2(O)C#Cc1cccc(C)c1 [Compound (I), (−)-(3aR,4S,7aR)-4-Hydroxy-4-m-tolylethynyl-octahydro-indole-1-carboxylic acid methyl ester]
effect on cue-induced reinstatement (lever presses) (Sprague-Dawley rats [1]; 3 mg/kg p.o. 30 minutes before the cue reinstatement session): No significant effect | number of active lever presses as compared with vehicle condition (Sprague-Dawley rats [1]; 10 mg/kg p.o. 30 minutes before the cue reinstatement session, p<0.01): significantly decreased | number of inactive lever presses as compared with vehicle (Sprague-Dawley rats [1]; 10 mg/kg p.o. 30 minutes before the cue reinstatement session, p<0.05): significantly decreased | increase of foot-licking latency as compared with animals receiving morphine from Day 1 to Day 6 (morphine tolerant mice; 1 mg/kg p.o. 60 minutes before the test on Day 7, p<0.01): +44% | effect on foot-licking latency (morphine tolerant mice; 3 mg/kg p.o. 60 minutes before the test on Day 7): no significant effects | effect on foot-licking latency (morphine tolerant mice; 10 mg/kg p.o. 60 minutes before the test on Day 7): no significant effects | average number of remifentanil infusions (Sprague-Dawley rats [2]; 3 mg/kg p.o. 30 min before one remifentanil 3.2 μg/kg/infusion session): did not significantly affect | rate of lever press (speed of lever pressing) (Sprague-Dawley rats [2]; 3 mg/kg p.o. 30 min before session): 0.048±0.019 responses/second/session | average number of remifentanil infusions (Sprague-Dawley rats [2]; 10 mg/kg p.o. 30 min before one remifentanil 3.2 μg/kg/infusion session): did not significantly affect | rate of lever press (speed of lever pressing) (Sprague-Dawley rats [2]; 10 mg/kg p.o. 30 min before session): 0.035±0.010 responses/second/session | average number of remifentanil infusions (Sprague-Dawley rats [2]; 30 mg/kg p.o. 30 min before one remifentanil 3.2 μg/kg/infusion session): did not significantly affect | rate of lever press (speed of lever pressing) (Sprague-Dawley rats [2]; 30 mg/kg p.o. 30 min before session): 0.026±0.007 responses/second/session

Cc1cccc(C#Cc2ccccc2)n1 [Compound (III), 2-Methyl-6-(phenylethynyl)-pyridine, reference compound]
number of active lever presses as compared with vehicle condition (Sprague-Dawley rats [1]; rat, in vivo): significantly decreased | number of inactive lever presses as compared with vehicle (Sprague-Dawley rats [1]; rat, in vivo): did not significantly affect | increase of foot-licking latency as compared with animals receiving morphine from Day 1 to Day 6 (morphine tolerant mice; 10 mg/kg p.o. 60 minutes before the test on Day 7, p<0.05): +32% | reduction of the self-administration (SA) of ketamine ([3]; dose dependently): 75% | reduction of the self-administration (SA) of heroin ([3]; modestly): 20% | rate of lever press (Sprague-Dawley rats [2]; rat, in vivo): 0.039±0.011 responses per second

Cc1nc(C#Cc2cccnc2)cs1 [MTEP, 3-[(2-methyl-1,3-thiazol-4-yl)ethynyl]pyridine]
operant responding for morphine (adult CD1 mice; morphine 0.1 mg/kg/infusion): attenuated | cue-induced morphine-seeking after a period of forced abstinence (adult CD1 mice): attenuated
